Patent publication US9029080B2, “Screening assay for insecticides” (priority 2008, dated 2015)
pIC50: −log10 of the molar value. Read-outs that look alike come from different tables or passages of the source.

Columns and labels:
[1] = molecular target: T1, ShaI/KChIP (Drosophila melanogaster, UniProt P17971); test: ShaI/KChIP FLIPR membrane potential assay, KCl depolarization; assay type: cell-based; conditions: for pIC50: ShaI/KChIP 20 cells, three consecutive days
T1 construct: expressed in transfected cells; subclone 18-13-20
T1 sequence (P17971 with tags, fused parts or gaps isoform P17971-1): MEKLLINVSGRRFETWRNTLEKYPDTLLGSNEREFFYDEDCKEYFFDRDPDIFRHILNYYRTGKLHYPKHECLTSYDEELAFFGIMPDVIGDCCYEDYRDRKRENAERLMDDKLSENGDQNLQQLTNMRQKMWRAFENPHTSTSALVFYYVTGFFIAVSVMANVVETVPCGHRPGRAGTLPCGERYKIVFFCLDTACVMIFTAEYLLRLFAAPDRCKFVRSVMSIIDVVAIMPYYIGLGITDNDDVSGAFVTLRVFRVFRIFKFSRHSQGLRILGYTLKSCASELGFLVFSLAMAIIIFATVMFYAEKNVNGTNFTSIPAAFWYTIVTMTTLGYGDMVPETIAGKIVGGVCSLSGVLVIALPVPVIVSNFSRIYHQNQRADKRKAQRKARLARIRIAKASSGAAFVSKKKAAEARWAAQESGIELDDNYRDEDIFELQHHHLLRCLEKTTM
Experimental: This assay uses two fluid additions to permit the detection of activators and antagonists in a single experiment (FIG. 17). In screening, test compounds are added in the first addition and allowed to incubate for three minutes. An activating dose of KCl is then introduced in the second addition and the fluorescence read for an additional three minutes. Controls are run for both additions.
Cells were dispensed in a 50 μl volume containing 7,500 cells into 384-well TC clear/black assay plates (Greiner 781091) using a Multidrop 384 dispenser, incubated at ambient temperature for one hour (to reduce edge effects), and incubated overnight at 37° C./5% CO2. The cells were assayed 18-24 hours after seeding, at which point they were just approaching confluency in the wells. Culture medium was removed by flicking and tapping it out of the plate, and cells were loaded with 20 ul/well of 1× blue membrane potential dye in assay buffer for 30 minutes at 25° C. After 30 minutes the assay plate was placed into the FLIPR and run using a two-addition protocol. The first addition (5×, 5 ul) contained 2.5% DMSO in assay buffer. The pipetting height was set at 15 and the speed 20. The plate was read for three minutes after this addition. The second addition (2×, 25 ul) was either assay buffer or 120 mM isometrically-substituted KCl (i.e., KCl substituted for NaCl on a 1:1 molar basis). The height was 20 and the speed 25. Aspirate speeds were set at the lowest values and no hold or expel volumes applied. The plate was read for an additional three minutes after the second addition. The exported statistics were typically configured as stat1=average of 190-200 (the interval just before the first addition) and stat2=maximum of 260-maximum allowed. Subtract bias was set at 1 and negative control correction was OFF. Z′ statistics (an index of “screenability”, Z′>0.5=single-pass screen) were calculated using the following formula: Z′=1−((3σmax+3σmin)/(Iμmax−μminI)).
FIG. 32: BIOMOL compounds—primary screening data. ScreenWorks screenshots showing primary FLIPR data for BIOMOL compound screening. ShaI/KChIP 20 cells were plated at 7500 cells/well in 384-well assay plates and screened the following day. Culture medium was removed by flicking the plates and the cells were loaded with 20 ul 1× membrane potential dye per well for 0.5 hours at 25° C. A two-addition protocol was used. The first addition was 5 ul 5× control or compound in 2.5% DMSO in assay buffer (0.5% [final]) read for 180 sec, and the second addition was 25 ul 2× control or 120 mM isometrically-substituted KCl in assay buffer (0-60 mM [final]) read for an additional 180 sec. Statistics were exported using the average of reads 180-200 and the maximum of reads 260-maximum allowed. Subtract bias was set at 1 and negative control correction was OFF. Control columns ½ and 23/24 are described starting on pg. 53 of this document. Inset: Screenshot of group averages for the control and compound wells highlighted in the primary data screen.
The 3222 unique members of the BioFocus SoftFocus Ion Channel Libraries #1-4 (#SF101-04) were screened in 384-well four-point mode against ShaI/KChIP at 10 uM in a combined activator and antagonist screen. The same FLIPR protocol was used as for the BIOMOL screening and was carried out over four non-consecutive days. The following compound preparation protocol was used to prepare screening plates: Briefly, ShaI-KChIP cells were seeded in 384-well plates at 7500 cells/well in 50 ul and incubated overnight at 37° C./5% CO2. The next day, culture medium was removed, 20 ul of 1×FMP dye was added, and the cell plate was incubated at 27° C. for 30 minutes. After incubation, the cell plate was placed into the Tetra and a two-addition protocol was used. The 1st addition was 5 μl of 5× compound (50 μM) with a three minute read. […] The 2nd addition was 25 ul of 2× activation buffer (120 mM isometric KCl substitution for NaCl) and read for an additional two minutes. […]

[2] = molecular target: T2, octopamine receptor (OctR, CG6919 dmOa2) (Drosophila melanogaster, UniProt Q9VCZ3); test: OctR clone 55 FLIPR Fluo-4 calcium assay; assay type: cell-based; conditions: clone 55, same as published cAMP data
T2 construct: expressed in transfected cells; host or cells: CHO stably expressing G-alpha-16
Experimental: FIG. 62. Cells were plated at 10K/well in 384 well plates and allowed to incubate overnight at […]. The cells were assayed 18-24 hours after seeding. Media was removed and cells were dye loaded for 60 minutes with 2 μM Fluo-4. After 1 hour, dye was removed and 20 μl of buffer added to the plate and placed into FLIPR. The 1st addition was antagonist dose response curves and the 2nd addition was agonist dose response curves. Antagonists were challenged with 100 nM Octopamine. In addition, these compounds were tested in the parental cell line CHO-Galpha16.
Cells were plated at 10,000 cells/well in 50 μl into 384-well black TC plates and allowed to incubate overnight at 37° C./5% CO2. The cells were assayed 18-24 hours after seeding. Culture medium was removed by flicking and cells were dye loaded for 60 minutes with 20 μl of 2 μM Fluo-4 in assay buffer plus probenecid at 25° C. After one hour dye was removed by flicking and 20 μL of assay buffer was added, wait 5 min prior to placing into the FLIPR and run using a two-addition protocol. The first addition (20 ul, 2×) was 0.5% DMSO final in assay buffer. The second addition (20 ul, 3×) was either assay buffer or 100 nM octopamine final.

[3] = read-out: inhibition of ShaI/KChIP response, arbitrary cutoff

SMILES	inhibition at 10 µM [1] [%]	also measured
CC1(c2ccccc2)C(=O)Nc2ccccc21 (centres unmarked)	42.6	–
COc1ccc(C(C)=O)cc1CC1(c2ccc3c(c2)OCO3)C(=O)Nc2ccccc21 (centres unmarked)	35.2	–
CC1(Cc2cc(Cl)ccc2C(F)(F)F)C(=O)Nc2ccccc21 (centres unmarked)	32.5	–
CC1(Cc2ccccc2C#N)C(=O)Nc2ccccc21 (centres unmarked)	39.7	–
Cc1ccsc1C1(C)C(=O)Nc2ccccc21 (centres unmarked)	56.8	–
CCC1(c2sccc2C)C(=O)Nc2ccccc21 (centres unmarked)	52	–
COc1ccc2c(c1)C(C)(Cc1ccc(Cl)s1)C(=O)N2 (centres unmarked)	38.3	–
O=C1Nc2ccc(F)cc2C1(Cc1ccccn1)c1ccc(Cl)cc1 (centres unmarked)	56.8	–
Cc1ccccc1C1(Cc2cccc(C#N)c2)C(=O)Nc2ccc(F)cc21 (centres unmarked)	55.5	–
COc1ccc(C2(Cc3ccc(C(F)(F)F)o3)C(=O)Nc3ccc(F)cc32)c(OC)c1 (centres unmarked)	60.3	–
COc1ccc(Cl)cc1CC1(C)C(=O)Nc2ccc(F)cc21 (centres unmarked)	32	–
CC1(Cc2ccc(F)c(Cl)c2)C(=O)Nc2ccc(F)cc21 (centres unmarked)	52.6	–
Cc1ccc(C2(Cc3csc(C)n3)C(=O)Nc3cccc(Cl)c32)cc1 (centres unmarked)	46	–
COC(=O)c1ccc(CC2(c3cccc(F)c3)C(=O)Nc3cccc(Cl)c32)o1 (centres unmarked)	41.5	–
N#Cc1cccc(CC2(c3ccccc3)C(=O)Nc3ccc(OC(F)(F)F)cc32)c1 (centres unmarked)	32.1	–
Cc1nc(CC2(c3ccccc3)C(=O)Nc3ccc(OC(F)(F)F)cc32)cs1 (centres unmarked)	31.4	–
O=C1Nc2ccc(OC(F)(F)F)cc2C1(Cc1ccccn1)c1ccccc1 (centres unmarked)	39.1	–
Cc1noc(C)c1CC1(c2ccccc2)C(=O)Nc2ccc(OC(F)(F)F)cc21 (centres unmarked)	50.4	–
Cc1ccc(C2(Cc3ccncc3)C(=O)Nc3ccc(OC(F)(F)F)cc32)cc1 (centres unmarked)	29.1	–

SMILES	inhibition at 10 µM [1] [%]	also measured
Cc1ccc(C2(Cc3cc(C)on3)C(=O)Nc3ccc(OC(F)(F)F)cc32)cc1 (centres unmarked)	40.1	–
Cc1nc(CC2(c3cccc(F)c3)C(=O)Nc3ccc(OC(F)(F)F)cc32)cs1 (centres unmarked)	34	–
CC1(Cc2cccc(F)c2)C(=O)Nc2ccc(OC(F)(F)F)cc21 (centres unmarked)	33.5	–
Cc1nc(CC2(c3sccc3C)C(=O)Nc3ccc(OC(F)(F)F)cc32)cs1 (centres unmarked)	37.8	–
Cc1nc(CC2(c3ccccc3)C(=O)Nc3cc(F)ccc32)cs1 (centres unmarked)	42.5	–
Cc1ccc(C2(Cc3csc(C)n3)C(=O)Nc3cc(F)ccc32)cc1 (centres unmarked)	29.3	–
Cc1ccc(C2(Cc3ccncc3)C(=O)Nc3cc(F)ccc32)cc1 (centres unmarked)	48.5	–
Cc1ccc(C2(Cc3cccc(C(N)=O)c3)C(=O)Nc3cc(F)ccc32)cc1 (centres unmarked)	57.5	–
Cc1nc(CC2(c3cccc(F)c3)C(=O)Nc3cc(F)ccc32)cs1 (centres unmarked)	37.5	–
O=C1Nc2cc(F)ccc2C1(Cc1ccc(C(F)(F)F)nc1)c1cccc(F)c1 (centres unmarked)	42.7	–
Cc1cc(CC2(c3cccc(F)c3)C(=O)Nc3cc(F)ccc32)no1 (centres unmarked)	54.9	–
NC(=O)c1cccc(CC2(c3cccc(F)c3)C(=O)Nc3cc(F)ccc32)c1 (centres unmarked)	54.1	–
Cc1ccsc1C1(Cc2cccc(C#N)c2)C(=O)Nc2cc(F)ccc21 (centres unmarked)	58	–
Cc1noc(C)c1CC1(c2ccccc2)C(=O)Nc2c(Cl)cccc21 (centres unmarked)	33	–
NC(=O)c1cccc(CC2(c3ccccc3)C(=O)Nc3c(Cl)cccc32)c1 (centres unmarked)	33.3	–
O=C1Nc2cc(Cl)cc(Cl)c2C1(Cc1ccncc1)c1ccccc1 (centres unmarked)	36.4	–
CC1(Cc2ccccc2C#N)C(=O)Nc2cc(OC(F)(F)F)ccc21 (centres unmarked)	31.2	–
CC1(Cc2ccccc2C#N)C(=O)Nc2cc(-c3ccccc3Cl)ccc21 (centres unmarked)	63.3	–
COc1ccc(Cl)cc1C1=NOCC(=O)N1CCOc1ccc(F)cc1	38.7	–

SMILES	inhibition at 10 µM [1] [%]	also measured
CC1ON=C(Cc2ccccc2)N(CCc2c[nH]c3ccccc23)C1=O (centres unmarked)	29.6	–
CCOc1ccc(C2=NOC(C)C(=O)N2Cc2cccc(F)c2)cc1 (centres unmarked)	52.7	–
CC1ON=C(c2cccc(Cl)c2)N(Cc2cccc(C#N)c2)C1=O (centres unmarked)	38.7	–
CC1ON=C(c2cccc(Cl)c2)N(Cc2ccc3c(c2)OCO3)C1=O (centres unmarked)	31.5	–
CC1ON=C(c2ccccc2F)N(Cc2cccc(F)c2)C1=O (centres unmarked)	30.2	–
Cc1cccnc1C1=NOC(Cc2ccccc2)C(=O)N1CCOc1ccc(F)cc1 (centres unmarked)	36.2	–
Cc1cccnc1C1=NOC(Cc2ccccc2)C(=O)N1CCc1ccccc1 (centres unmarked)	33.3	–
CC1=NOC(Cc2ccccc2)C(=O)N1CC(=O)c1ccccc1F (centres unmarked)	41.6	–
CC1ON=C(c2ccc(N(C)C)cc2)N(Cc2cccc(F)c2)C1=O (centres unmarked)	41.3	–
Cc1c(C(=O)NCc2ccc(F)cc2)sc(=O)n1Cc1ccc(Cl)c(Cl)c1	38	–
Cc1c(C(=O)NCc2ccc([N+](=O)[O-])cc2)sc(=O)n1Cc1ccc(OC(F)(F)F)cc1	30.2	–
O=C(NCc1cccc(C(F)(F)F)c1)c1cn(CCc2c[nH]c3ccccc23)c(=O)s1	35	–
Cc1c(C(=O)NCc2ccc(C(F)(F)F)cc2)sc(=O)n1CCc1c[nH]c2ccccc12	33.3	–
O=C(NCc1cccc(C(F)(F)F)c1)c1cn(CCOc2ccc(F)cc2)c(=O)s1	30.2	–
Cc1ccc(C2(Cc3c(C)noc3C)C(=O)Nc3cc(F)ccc32)cc1 (centres unmarked)	35.2	–
NC(N)=NC(=O)c1nc(Cl)c(N)nc1N [Amiloride, 3,5-diamino-6-chloro-N-(diaminomethylene)pyrazine-2-carboxamide, reference compound]	–	inhibition at 25 µM [1]: 80 to 100%; pIC50 ([1]; duplicate plates, read-out: IC50 range): 4.54 to 4.70; pIC50 ([1]; standard deviation 3 uM, read-out: IC50 mean): 4.62; inhibition at 25 µM [1, 3]: ≥ 55%
Cc1ccc(/N=C/N(C)/C=N/c2ccc(C)cc2C)c(C)c1 [amitraz]	–	rank order of potency (agonists) [2]: naphazoline>octopamine>amitraz>clonidine>tolazoline
O=C(O)c1ccccc1Nc1cccc(C(F)(F)F)c1 [flufenamic acid, reference compound]	–	inhibition at 25 µM [1, 3]: ≥ 55%
